The source of these data is patent publication US8461083B2, “Herbicidal compounds” (Syngenta Limited, priority 2008, dated 2013).

The structures appear in SMILES notation.

Format in all cases: in vivo
Assay [1] has as its system Alopecurus myosuroides (ALOMY). Nature of the assay: Post-emergence herbicidal glasshouse test. As to conditions: post-emergence (sprayed after 8 days cultivation), evaluated after 13 days, 100=total damage to plant, 0=no damage to plant; for pest or weed control at 1000 g/ha: Alopecurus myosuroides, 312 h, read-out: POST Application ALOMY, damage to plant; for POST Application ALOMY, damage to plant: 1000 g/ha. Here is the method:
(§1) Seeds of a variety of test species were sown in standard soil in pots (Alopecurus myosuroides (ALOMY), Setaria faberi (SETFA), Echinochloa crus-galli (ECHCG), Solanum nigrum (SOLNI) and Amaranthus retoflexus (AMARE)). After cultivation for one day (pre-emergence) or after 8 days cultivation (post-emergence) under controlled conditions in a glasshouse (at 24/16° C., day/night; 14 hours light; 65% humidity), the plants were sprayed with an aqueous spray solution derived from the formulation of the technical active ingredient in acetone/water (50:50) solution containing 0.5% Tween 20 (polyoxyethelyene sorbitan monolaurate, CAS RN 9005-64-5). Compounds were applied at 1000 g/ha. The test plants were then grown in a glasshouse under controlled conditions in a glasshouse (at 24/16° C., day/night; 14 hours light; 65% humidity) and watered twice daily. After 13 days for pre and post-emergence, the test was evaluated (100=total damage to plant; 0=no damage to plant).

For assay [2], the system named is Amaranthus retoflexus (AMARE). The assay can be described thus: Post-emergence herbicidal glasshouse test. As to conditions: post-emergence (sprayed after 8 days cultivation), evaluated after 13 days, 100=total damage to plant, 0=no damage to plant; for pest or weed control at 1000 g/ha: Amaranthus retroflexus, 312 h, read-out: POST Application AMARE, damage to plant; for POST Application AMARE, damage to plant: 1000 g/ha. Here is the method:
as §1

Assay [3] has as its system Echinochloa crus-galli (ECHCG). The assay can be described thus: Post-emergence herbicidal glasshouse test. As to conditions: post-emergence (sprayed after 8 days cultivation), evaluated after 13 days, 100=total damage to plant, 0=no damage to plant; for pest or weed control at 1000 g/ha: Echinochloa crus-galli, 312 h, read-out: POST Application ECHCG, damage to plant; for POST Application ECHCG, damage to plant: 1000 g/ha. Here is the method:
as §1

Assay [4] relates to Setaria faberi (SETFA). Nature of the assay: Post-emergence herbicidal glasshouse test. Particulars: post-emergence (sprayed after 8 days cultivation), evaluated after 13 days, 100=total damage to plant, 0=no damage to plant; for pest or weed control at 1000 g/ha: Setaria faberi, 312 h, read-out: POST Application SETFA, damage to plant; for POST Application SETFA, damage to plant: 1000 g/ha. Here is the method:
as §1

The test system of assay [5] is Solanum nigrum (SOLNI). Nature of the assay: Post-emergence herbicidal glasshouse test. As to conditions: post-emergence (sprayed after 8 days cultivation), evaluated after 13 days, 100=total damage to plant, 0=no damage to plant; for pest or weed control at 1000 g/ha: Solanum nigrum, 312 h, read-out: POST Application SOLNI, damage to plant; for POST Application SOLNI, damage to plant: 1000 g/ha. Here is the method:
as §1

Assay [6] has as its system Alopecurus myosuroides (ALOMY). The assay can be described thus: Pre-emergence herbicidal glasshouse test. As to conditions: pre-emergence (sprayed after one day cultivation), evaluated after 13 days, 100=total damage to plant, 0=no damage to plant; for pest or weed control at 1000 g/ha: Alopecurus myosuroides, 312 h, read-out: PRE Application ALOMY, damage to plant; for PRE Application ALOMY, damage to plant: 1000 g/ha. Here is the method:
as §1

Assay [7] has as its system Amaranthus retoflexus (AMARE). The assay can be described thus: Pre-emergence herbicidal glasshouse test. As to conditions: pre-emergence (sprayed after one day cultivation), evaluated after 13 days, 100=total damage to plant, 0=no damage to plant; for pest or weed control at 1000 g/ha: Amaranthus retroflexus, 312 h, read-out: PRE Application AMARE, damage to plant; for PRE Application AMARE, damage to plant: 1000 g/ha. Here is the method: as §1

Assay [8] relates to Echinochloa crus-galli (ECHCG). The assay can be described thus: Pre-emergence herbicidal glasshouse test. As to conditions: pre-emergence (sprayed after one day cultivation), evaluated after 13 days, 100=total damage to plant, 0=no damage to plant; for pest or weed control at 1000 g/ha: Echinochloa crus-galli, 312 h, read-out: PRE Application ECHCG, damage to plant; for PRE Application ECHCG, damage to plant: 1000 g/ha. Here is the method:
as §1

Assay [9] deals with Setaria faberi (SETFA). The assay can be described thus: Pre-emergence herbicidal glasshouse test. As to conditions: pre-emergence (sprayed after one day cultivation), evaluated after 13 days, 100=total damage to plant, 0=no damage to plant; for pest or weed control at 1000 g/ha: Setaria faberi, 312 h, read-out: PRE Application SETFA, damage to plant; for PRE Application SETFA, damage to plant: 1000 g/ha. Here is the method: as §1

Assay [10] has as its system Solanum nigrum (SOLNI). The assay can be described thus: Pre-emergence herbicidal glasshouse test. As to conditions: pre-emergence (sprayed after one day cultivation), evaluated after 13 days, 100=total damage to plant, 0=no damage to plant; for pest or weed control at 1000 g/ha: Solanum nigrum, 312 h, read-out: PRE Application SOLNI, damage to plant; for PRE Application SOLNI, damage to plant: 1000 g/ha. Here is the method: as §1

On to `CCCCCCCC(=O)OC1=C(C(=O)c2cc3cc(F)c(C)nc3nc2C(F)(F)F)C(=O)CCC1` [Compound 4.22, n-Octanoic acid 2-(6-fluoro-7-methyl-2-trifluoromethyl-[1,8]-naphthyridine-3-carbonyl)-3-oxo-cyclohex-1-enyl ester], for which the pest or weed control at 1000 g/ha in assay [1] came to 70%; in assay [2], 90%; in [3], 90%; in assay [4], 80%; in [5], 90%; in [6] it was 60%. For the same molecule, the pest or weed control at 1000 g/ha in assay [7], in assay [8], in assay [9] and in [10] was 100% in each case.

For `CCNc1nc2nc(C(F)(F)F)c(C(=O)C3C(=O)CCCC3=O)cc2cc1F` [Compound 1.84], the pest or weed control at 1000 g/ha is 70% in assay [1]; 80% in assay [2]; 80% in [3]; 80% in assay [4]; 80% in assay [5]; 60% in assay [6]. Also, the pest or weed control at 1000 g/ha in [7], in [8], in [9] and in assay [10] was 100% throughout.

On to `O=C1CCCC(=O)C1C(=O)c1cc2ccc(=O)n(Cc3ccccc3F)c2nc1C(F)(F)F` [Compound 2.12], for which the “POST Application ALOMY, damage to plant” value in assay [1] stood at 70. Also, in assay [2], the “POST Application AMARE, damage to plant” value is 70. Moreover, the “POST Application ECHCG, damage to plant” value in assay [3] is listed as 70. Further, the “POST Application SETFA, damage to plant” value in assay [4] came to 90. Besides, the “POST Application SOLNI, damage to plant” value in assay [5] stood at 100. In addition, in assay [6], the “PRE Application ALOMY, damage to plant” value was found to be 80. The “PRE Application AMARE, damage to plant” value in assay [7] was 60. The “PRE Application ECHCG, damage to plant” value in assay [8] came out at 90. The “PRE Application SETFA, damage to plant” value in [9] is recorded as 90. In addition, the “PRE Application SOLNI, damage to plant” value in assay [10] was found to be 90.

On to `CCOC(F)(F)c1nc2nc(C)c(F)cc2cc1C(=O)C1C(=O)CCCC1=O` [Compound 1.102, 2-[2-(Ethoxydifluoromethyl)-6-fluoro-7-methyl-[1,8]-naphthyridine-3-carbonyl]-cyclohexane-1,3-dione], for which the pest or weed control at 1000 g/ha in assay [1] was 60%; in assay [2] it was 90%; in assay [3], 80%; in [4], 80%; in assay [5], 60%; in [6], 30%. The pest or weed control at 1000 g/ha in [7] worked out at 100%; in assay [8], 90%; in assay [9] it was 100%; in assay [10], 100%.

Consider `Cc1nc2nc(C(F)(F)F)c(C(=O)C3C(=O)CCCC3=O)cc2c(C)c1F` [Compound 1.88, 2-[5,7-dimethyl-6-fluoro-2-trifluoromethyl-[1,8]-naphthyridine-3-carbony]-cyclohexane-1,3-dione], for which the pest or weed control at 1000 g/ha was 30% in [1]; 100% in [2]; 90% in assay [3]; 80% in assay [4]; 90% in assay [5]; 40% in assay [6]. Besides, the pest or weed control at 1000 g/ha in assay [7] was 90%; in [8], 100%; in [9] it was 100%; in assay [10] it was 100%.

Regarding `CCCCc1nc2nc(C(F)(F)F)c(C(=O)C3C(=O)CCCC3=O)cc2cc1F` [Compound 1.86, 2-[7-butyl-6-fluoro-2-trifluoromethyl-[1,8]-naphthyridine-3carbony]-cyclohexane-1,3-dione], the pest or weed control at 1000 g/ha in [1] was 70%; in assay [2], 100%; in [3], 80%; in [4] it was 90%; in assay [5], 90%; in assay [6], 80%. In addition, the pest or weed control at 1000 g/ha in assay [7], in assay [8], in assay [9] and in assay [10] was 100% in each case.

For `Cc1nc2nc(C(F)(F)C(F)(F)F)c(C(=O)C3C(=O)CCCC3=O)cc2cc1F` [Compound 1.94], in assay [1], the “POST Application ALOMY, damage to plant” value is 60. Also, the “POST Application AMARE, damage to plant” value in assay [2] came out at 100. Further, the “POST Application ECHCG, damage to plant” value in [3] came to 80. The “POST Application SETFA, damage to plant” value in assay [4] was 80. Also, the “POST Application SOLNI, damage to plant” value in assay [5] was determined as 90. Moreover, the “PRE Application ALOMY, damage to plant” value in assay [6] is 20. Also, the “PRE Application AMARE, damage to plant” value in [7] amounted to 100. Also, the “PRE Application ECHCG, damage to plant” value in assay [8] stood at 100. In addition, in [9], the “PRE Application SETFA, damage to plant” value was 100. The “PRE Application SOLNI, damage to plant” value in assay [10] came to 90.

`O=C1CCCC(=O)C1C(=O)c1cc2ccc(=O)n(Cc3ccccc3)c2nc1C(F)(F)F` [Compound 2.20, 2-(8-Benzyl-7-oxo-7,8-dihydro-2-trifluoromethyl-[1,8]-naphthyridine-3-carbony)-cyclohexane-1,3-dione]: the “POST Application ALOMY, damage to plant” value in [1] is given as 70. Further, the “POST Application AMARE, damage to plant” value in [2] worked out at 80. For the same molecule, the “POST Application ECHCG, damage to plant” value in [3] amounted to 70. Also, the “POST Application SETFA, damage to plant” value in assay [4] amounted to 70. Also, the “POST Application SOLNI, damage to plant” value in [5] was found to be 80. Also, the “PRE Application ALOMY, damage to plant” value in [6] came out at 100. For the same molecule, the “PRE Application AMARE, damage to plant” value in assay [7] is listed as 100. For the same molecule, the “PRE Application ECHCG, damage to plant” value in assay [8] was determined as 100. Also, the “PRE Application SETFA, damage to plant” value in [9] was determined as 100. In assay [10], the “PRE Application SOLNI, damage to plant” value stood at 100.

`CCN(C)c1nc2nc(C(F)(F)F)c(C(=O)C3C(=O)CCCC3=O)cc2cc1F` [Compound 1.81, 2-[6-fluoro-7-(N-methylethylamino)-2-trifluoromethyl-[1,8]-naphthyridine-3-carbony]-cyclohexane-1,3-dione]: the “POST Application ALOMY, damage to plant” value in assay [1] stood at 70. In assay [2], the “POST Application AMARE, damage to plant” value was found to be 90. For the same molecule, in assay [3], the “POST Application ECHCG, damage to plant” value turned out to be 90. For the same molecule, the “POST Application SETFA, damage to plant” value in assay [4] amounted to 80. The “POST Application SOLNI, damage to plant” value in assay [5] is reported as 80. For the same molecule, the “PRE Application ALOMY, damage to plant” value in assay [6] was determined as 70. The “PRE Application AMARE, damage to plant” value in assay [7] was determined as 100. Moreover, in [8], the “PRE Application ECHCG, damage to plant” value was 100. Moreover, the “PRE Application SETFA, damage to plant” value in [9] is 100. Also, the “PRE Application SOLNI, damage to plant” value in assay [10] is listed as 100.

As to `CCN(CC)c1nc2nc(C(F)(F)F)c(C(=O)C3C(=O)CCCC3=O)cc2cc1F` [Compound 1.73, 2-[7-(diethylamino)-6-fluoro-2-trifluoromethyl-[1,8]-naphthyridine-3-carbony]-cyclohexane-1,3-dione], the pest or weed control at 1000 g/ha came out at 60% in assay [1]; 70% in assay [2]; 80% in assay [3]; 80% in [4]; 70% in assay [5]; 60% in assay [6]. Also, the pest or weed control at 1000 g/ha in assay [7] came to 70%; in assay [8] it was 100%; in assay [9] it was 100%; in assay [10], 100%.
